Experimental data as given in PubChem BioAssay AID2060887 (Molecular Pharmacology Branch, DTP, NCI, 2025).
Blank lines part the entries; values can stand above or below the compound they belong to.

Test system: 782815-120-R-J1-PDC complex spheroid viability
Experiment: Anticancer human tumor 782815-120-R-J1-PDC patient-derived colon adenocarcinoma cell line growth inhibition [RAS]
Settings: for IC50: curve of first compound; for viability, T/C: stronger effect = lower value
How it was run: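 Agents were tested in combination matrices in half-log decrements from a top concentration at or near clinical Cmax (10 microM if undetermined). Targets were multi-cell spheroids of tumour lines plus HUVEC and MSC stromal cells.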

[1] = second compound 0.0316 µM, first compound 0.00316 µM
[2] = second compound 0.0316 µM, first compound 0.01 µM
[3] = second compound 0.0316 µM, first compound 0.0316 µM
[4] = second compound 0.0316 µM, first compound 0.1 µM
[5] = second compound 0.0316 µM, first compound 0.316 µM
[6] = second compound 0.0316 µM, first compound 1 µM
[7] = second compound 0.1 µM, first compound 0.00316 µM
[8] = second compound 0.1 µM, first compound 0.01 µM
[9] = second compound 0.1 µM, first compound 0.0316 µM
[10] = second compound 0.1 µM, first compound 0.1 µM
[11] = second compound 0.1 µM, first compound 0.316 µM
[12] = second compound 0.1 µM, first compound 1 µM
[13] = second compound 0.316 µM, first compound 0.00316 µM
[14] = second compound 0.316 µM, first compound 0.01 µM
[15] = second compound 0.316 µM, first compound 0.0316 µM
[16] = second compound 0.316 µM, first compound 0.1 µM
[17] = second compound 0.316 µM, first compound 0.316 µM
[18] = second compound 0.316 µM, first compound 1 µM
[19] = second compound 1 µM, first compound 0.00316 µM
[20] = second compound 1 µM, first compound 0.01 µM
[21] = second compound 1 µM, first compound 0.0316 µM
[22] = second compound 1 µM, first compound 0.1 µM
[23] = second compound 1 µM, first compound 0.316 µM
[24] = second compound 1 µM, first compound 1 µM
[25] = second compound 3.16 µM, first compound 0.00316 µM
[26] = second compound 3.16 µM, first compound 0.01 µM
[27] = second compound 3.16 µM, first compound 0.0316 µM
[28] = second compound 3.16 µM, first compound 0.1 µM
[29] = second compound 3.16 µM, first compound 0.316 µM
[30] = second compound 3.16 µM, first compound 1 µM
[31] = second compound 10 µM, first compound 0.00316 µM
[32] = second compound 10 µM, first compound 0.01 µM
[33] = second compound 10 µM, first compound 0.0316 µM
[34] = second compound 10 µM, first compound 0.1 µM
[35] = second compound 10 µM, first compound 0.316 µM
[36] = second compound 10 µM, first compound 1 µM
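Note: spheroids exposed to compounds for 7 days before reading.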
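Throughout, for viability, T/C: 100% = DMSO vehicle control viability.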

IC50 (second compound 0.0316 µM): > 1000 nM | IC50 (second compound 0.1 µM): > 1000 nM | IC50 (second compound 0.316 µM): > 1000 nM | IC50 (second compound 1 µM): > 1000 nM | IC50 (second compound 3.16 µM): > 1000 nM | IC50 (second compound 10 µM): > 1000 nM
Compound: C=CC(=O)N1CCN(c2nc(OCC3CCCN3C)nc3c(F)c(-c4nc(N)cc(C)c4C(F)(F)F)c(Cl)cc23)C(C)C1 (stereo unspecified) + C#Cc1c(F)ccc2cc(O)cc(-c3ncc4c(N5CC6CCC(C5)N6)nc(OCC56CCCN5CC(F)C6)nc4c3F)c12
viability, T/C [1]: 98.9% | viability, T/C [2]: 86.9% | viability, T/C [3]: 103% | viability, T/C [4]: 92.5% | viability, T/C [5]: 96.9% | viability, T/C [6]: 97% | viability, T/C [7]: 97.3% | viability, T/C [8]: 93.1% | viability, T/C [9]: 97.5% | viability, T/C [10]: 94% | viability, T/C [11]: 97% | viability, T/C [12]: 101% | viability, T/C [13]: 92.6% | viability, T/C [14]: 94.7% | viability, T/C [15]: 89.2% | viability, T/C [16]: 91.8% | viability, T/C [17]: 98.4% | viability, T/C [18]: 84.4% | viability, T/C [19]: 95.5% | viability, T/C [20]: 94.6% | viability, T/C [21]: 94% | viability, T/C [22]: 99.2% | viability, T/C [23]: 101% | viability, T/C [24]: 98.3% | viability, T/C [25]: 97.3% | viability, T/C [26]: 91.7% | viability, T/C [27]: 95.9% | viability, T/C [28]: 105% | viability, T/C [29]: 101% | viability, T/C [30]: 90.5% | viability, T/C [31]: 106% | viability, T/C [32]: 104% | viability, T/C [33]: 93.6% | viability, T/C [34]: 99.6% | viability, T/C [35]: 104% | viability, T/C [36]: 91.1%

IC50 (second compound 0.0316 µM): > 100 nM | IC50 (second compound 0.1 µM): > 100 nM | IC50 (second compound 0.316 µM): > 100 nM | IC50 (second compound 1 µM): > 100 nM | IC50 (second compound 3.16 µM): > 100 nM | IC50 (second compound 10 µM): > 100 nM
Compound: CC(C)n1nc(-c2ccc3oc(N)nc3c2)c2c(N)ncnc21 + C#Cc1c(F)ccc2cc(O)cc(-c3ncc4c(N5CC6CCC(C5)N6)nc(OCC56CCCN5CC(F)C6)nc4c3F)c12
viability, T/C (second compound 0.0316 µM, first compound 0.000316 µM): 97% | viability, T/C (second compound 0.0316 µM, first compound 0.001 µM): 100% | viability, T/C [1]: 105% | viability, T/C [2]: 98.1% | viability, T/C [3]: 91.8% | viability, T/C [4]: 85.2% | viability, T/C (second compound 0.1 µM, first compound 0.000316 µM): 99.1% | viability, T/C (second compound 0.1 µM, first compound 0.001 µM): 91.4% | viability, T/C [7]: 101% | viability, T/C [8]: 89.6% | viability, T/C [9]: 97% | viability, T/C [10]: 81.6% | viability, T/C (second compound 0.316 µM, first compound 0.000316 µM): 96.6% | viability, T/C (second compound 0.316 µM, first compound 0.001 µM): 105% | viability, T/C [13]: 94.5% | viability, T/C [14]: 108% | viability, T/C [15]: 88.1% | viability, T/C [16]: 84.1% | viability, T/C (second compound 1 µM, first compound 0.000316 µM): 99.7% | viability, T/C (second compound 1 µM, first compound 0.001 µM): 101% | viability, T/C [19]: 88.6% | viability, T/C [20]: 105% | viability, T/C [21]: 93.7% | viability, T/C [22]: 83.8% | viability, T/C (second compound 3.16 µM, first compound 0.000316 µM): 98.7% | viability, T/C (second compound 3.16 µM, first compound 0.001 µM): 101% | viability, T/C [25]: 93.5% | viability, T/C [26]: 92.6% | viability, T/C [27]: 92.1% | viability, T/C [28]: 84.4% | viability, T/C (second compound 10 µM, first compound 0.000316 µM): 101% | viability, T/C (second compound 10 µM, first compound 0.001 µM): 95.3% | viability, T/C [31]: 85.3% | viability, T/C [32]: 92.8% | viability, T/C [33]: 88.8% | viability, T/C [34]: 74.7%

IC50 (second compound 0.0316 µM): > 10000 nM | IC50 (second compound 0.1 µM): > 10000 nM | IC50 (second compound 0.316 µM): > 10000 nM | IC50 (second compound 1 µM): > 10000 nM | IC50 (second compound 3.16 µM): > 10000 nM | IC50 (second compound 10 µM): > 10000 nM
Compound: CC(C)NCC(C(=O)N1CCN(c2ncnc3c2C(C)CC3O)CC1)c1ccc(Cl)cc1 (stereo unspecified) + C#Cc1c(F)ccc2cc(O)cc(-c3ncc4c(N5CC6CCC(C5)N6)nc(OCC56CCCN5CC(F)C6)nc4c3F)c12
viability, T/C [3]: 95.9% | viability, T/C [4]: 106% | viability, T/C [5]: 95.6% | viability, T/C [6]: 103% | viability, T/C (second compound 0.0316 µM, first compound 3.16 µM): 96.3% | viability, T/C (second compound 0.0316 µM, first compound 10 µM): 94.3% | viability, T/C [9]: 95.5% | viability, T/C [10]: 104% | viability, T/C [11]: 101% | viability, T/C [12]: 98.1% | viability, T/C (second compound 0.1 µM, first compound 3.16 µM): 100% | viability, T/C (second compound 0.1 µM, first compound 10 µM): 97% | viability, T/C [15]: 109% | viability, T/C [16]: 108% | viability, T/C [17]: 93.5% | viability, T/C [18]: 103% | viability, T/C (second compound 0.316 µM, first compound 3.16 µM): 96.3% | viability, T/C (second compound 0.316 µM, first compound 10 µM): 105% | viability, T/C [21]: 108% | viability, T/C [22]: 113% | viability, T/C [23]: 90.7% | viability, T/C [24]: 94.6% | viability, T/C (second compound 1 µM, first compound 3.16 µM): 103% | viability, T/C (second compound 1 µM, first compound 10 µM): 103% | viability, T/C [27]: 104% | viability, T/C [28]: 101% | viability, T/C [29]: 93.1% | viability, T/C [30]: 100% | viability, T/C (second compound 3.16 µM, first compound 3.16 µM): 98.3% | viability, T/C (second compound 3.16 µM, first compound 10 µM): 102% | viability, T/C [33]: 103% | viability, T/C [34]: 108% | viability, T/C [35]: 93.4% | viability, T/C [36]: 101% | viability, T/C (second compound 10 µM, first compound 3.16 µM): 96.5% | viability, T/C (second compound 10 µM, first compound 10 µM): 98.4%
